# In patent publication US20230386615A1, “BINDING SITE IN TYPE 1 RYANODINE RECEPTOR” (The Trustees of Columbia University in the City of New York, priority 2021, published 2023):
# Legend:
# RyR1-W996A [1] = target: T1, RyR1-W996A (Oryctolagus cuniculus, UniProt P11716, W996A); assay type: binding, rabbit
# T1 construct: Each fragment was subcloned into a full length RyR1 construct in pcDNA3.1 vector; expressed in transfected cells; host or cells: HEK293 (also 293T/17) cells, pcDNA3.1
# RyR1-WT [2] = target: T2, RyR1-WT (Oryctolagus cuniculus, UniProt P11716); assay type: binding, rabbit
# T2 construct: Each fragment was subcloned into a full length RyR1 construct in pcDNA3.1 vector; expressed in transfected cells; host or cells: HEK293 (also 293T/17) cells, pcDNA3.1
# RyR1 [3] = target: T3, RyR1 (Oryctolagus cuniculus, UniProt P11716); assay: S107 binding in the presence of increasing concentrations of ATP or ADP; set-up: species or system rabbit
# T3 construct: from tissue; host or cells: rabbit skeletal muscle sarcoplasmic reticulum microsomes
# RyR1-W882A [4] = target: T4, RyR1-W882A (Oryctolagus cuniculus, UniProt P11716, W882A); details: radiolabeled ATP
# [5] = system: HEK293 cells expressing mutant RyR1; assay: Ca2+ imaging, caffeine-induced Ca2+ release; assay type: cell-based, rabbit; details: both mutants, 1 mM H2O2, 10 mM caffeine
# RyR1-WT [6] = target: T2, RyR1-WT; assay: 3H-S107 binding, recombinant RyR1 HEK293 microsomes treated with PKA and H2O2; set-up: species or system rabbit
# RyR1 [7] = target: T3, RyR1; assay: 3H-S107 radioligand binding, skeletal SR microsomes untreated or treated with PKA and H2O2; set-up: species or system rabbit
# Protocol: For PKA-phosphorylated channel experiments, […] of microsomes were in vitro phosphorylated with 40 units of PKA catalytic subunit (SigmaAldrich, Cat #P2645) for 30 min at 30° C. in the presence of the following buffer: 50 mM Tris/PIPES pH 7.0, 8 mM MgCl2, 1 mM MgATP, and 1 mM EGTA. The samples were then spun by centrifuge for 10 min at 100,000×g. The resulting pellets were washed four times with wash buffer (300 mM sucrose, 10 mM imidazole, pH 7.4) and aliquots were frozen in liquid nitrogen and stored at −80° C. Oxidation of RyR1 was induced by incubating microsomes with 1 mM H2O2 for 30 min at room temperature prior to washing.
# Titrative ^3H-S107 binding, performed in the absence and presence of 10 mM NaATP, was initiated by addition of ^3H-S107 (10-10,000 nM final concentration) to 0.1 mg skeletal sarcoplasmic reticulum (SR) microsomes in binding buffer (50 mM Tris-HCl, pH 7.5, 150 mM NaCl, 25 mM MgCl2). […] All samples were incubated at room temperature for 30 min ^3H-S107 binding was stopped by addition of ice-cold binding buffer prior to filtration through GF/B Whatman filters pre-equilibrated with 0.015% PE. Filters were washed 3 times with 5 mL of wash buffer (10 mM MOPS, 200 mM NaCl, pH 7.4), dried, and counted. Data were normalized to ^3H-ryanodine binding. […].
# purified RyR1 = target: T5, purified RyR1 (Oryctolagus cuniculus, UniProt P11716); assay: 3H-S107 binding to purified RyR1 in absence and presence of 10 mM ATP; set-up: species or system rabbit
# T5 construct: RyR1 was purified from rabbit skeletal muscle; from tissue
# RyR1-W882A [8] = target: T4, RyR1-W882A; assay: 3H-S107 binding, recombinant RyR1 HEK293 microsomes treated with PKA and H2O2; set-up: Each fragment was subcloned into a full length RyR1 construct in pcDNA3.1 vector; expressed in transfected cells; host or cells: HEK293 (also 293T/17) cells, pcDNA3.1; species or system rabbit; details: W882A mutation
# RyR1-W996A [9] = target: T1, RyR1-W996A; assay: as above; set-up: species or system rabbit
# [10] = first section of TABLE 5, 10 mM ATP added
# [11] = third section of TABLE 5, ADP in place of ATP
smiles,measurement,setting,value
"Nc1ncnc2c1ncn2[C@@H]1O[C@H](COP(=O)(O)OP(=O)(O)O)[C@@H](O)[C@H]1O [ADP, adenosine diphosphate]","ADP binding stoichiometry, in words",RyR1-W996A [1]; RyR1-W996A,greater than one molecule per channel
same,stoichiometry,RyR1-WT [2],12 molecules per channel
same,competition with S107 binding,RyR1 [3],significant inhibitory effect
"Nc1ncnc2c1ncn2[C@@H]1O[C@H](COP(=O)(O)OP(=O)(O)OP(=O)(O)O)[C@@H](O)[C@H]1O [ATP, adenosine triphosphate]","ATP binding, in words",RyR1-W996A [1]; W996A mutant,significantly reduced
same,"ATP binding, in words",RyR1-W882A [4],"maintained, although slightly reduced"
"COc1ccc2c(c1)CN(Cc1ccc(C(=O)O)cc1)CCS2 [Compound 1, 4-[(7-methoxy-2,3-dihydro-1,4-benzothiazepin-4(5H)-yl)methyl]benzoic acid]",caffeine-induced calcium release after oxidation,[5],unaffected
COc1ccc2c(c1)CN(C)CCS2 [Compound S107],Bmax,RyR1-WT [6]; [10],3.5 ± 0.3 mol S107/mol RyR1
same,Kd,RyR1-WT [6]; [10],200 ± 11 nM
same,Bmax,RyR1-WT [6]; [11],3.6 ± 0.3 mol S107/mol RyR1
same,Kd,RyR1-WT [6]; [11],188 ± 12 nM
same,Bmax,RyR1 [7]; PKA/H2O2 treated microsomes,3.7 ± 0.2 mol S107/mol RyR1
same,Kd,RyR1 [7]; PKA/H2O2 treated microsomes,155 ± 9 nM
same,Bmax,RyR1 [7]; Untreated microsomes,0.4 ± 0.1 mol S107/mol RyR1
same,Kd,RyR1 [7]; Untreated microsomes,150 ± 7 nM
same,Bmax,purified RyR1; 10 mM ATP,3.0 ± 0.2 mol S107/mol RyR1
same,Kd,purified RyR1; 10 mM ATP,152 ± 7 nM
same,Bmax,purified RyR1; No ATP,0.4 ± 1.0 mol S107/mol RyR1
same,Kd,purified RyR1; No ATP,147 ± 6 nM
same,"3H-S107 binding to the channel, in words",RyR1-W882A [8],abolished
same,Kd,RyR1-W996A [9],250 ± 10 nM
same,Bmax,"RyR1-W996A [9]; RyR1-W996A, third section of TABLE 5, ADP in place of ATP",2.0 ± 0.2 mol S107/mol RyR1
